US20220348558A1, “INHIBITORS OF ENCEPHALITIC ALPHAVIRUSES” (priority 2019, published 2022)

Key:
VEEV TC83 = experiment: microbe, parasite or virus in culture; type: cell-based; details: Venezuelan equine encephalitis virus, Vero 76, 48 h, read-out: VEEV TC83 EC50 nM
WEEV California = experiment: microbe, parasite or virus in culture; type: cell-based; details: Western equine encephalitis virus, Vero 76, 48 h, read-out: WEEV California EC50 nM

Compound	EC50 (VEEV TC83)	EC50 (WEEV California)
O=c1c2cc([N+](=O)[O-])ccc2nc([C@@H]2CCCN2C2CCOCC2)n1-c1ccccc1 [Example 6, (S)-6-nitro-3-phenyl-2-(1-(tetrahydro-2H-pyran-4-yl)pyrrolidin-2-yl)quinazolin-4 (3H)-one]	501 to 1000 nM	> 1000 nM
O=c1c2cc([N+](=O)[O-])ccc2nc(C2CCCN2)n1-c1ccccc1 (centres unmarked) [Example 1, 6-nitro-3-phenyl-2-(pyrrolidin-2-yl) quinazolin-4 (3H)-one]	51 to 150 nM	51 to 150 nM
COc1ccc(-n2c([C@@H](C)N(C)C)nc3ccc([N+](=O)[O-])cc3c2=O)cc1 [Example 209, (R)-2-(1-(dimethylamino)ethyl)-3-(4-methoxyphenyl)-6-nitroquinazolin-4 (3H)-one]	51 to 150 nM	151 to 500 nM
COc1ccc(-n2c(C3CCCN3C)nc3c(-c4ccc(C)nc4)cc(C#N)cc3c2=O)cc1F (centres unmarked) [Example 111, 3-(3-fluoro-4-methoxyphenyl)-8-(6-methylpyridin-3-yl)-2-(1-methylpyrrolidin-2-yl)-4-oxo-3,4-dihydroquinazoline-6-carbonitrile]	1 to 50 nM	1 to 50 nM
COc1c(F)cc(-n2c(C3CCCN3)nc3c(C#CC(C)(C)O)cc(C#N)cc3c2=O)cc1F (centres unmarked) [Example 193, 3-(3,5-Difluoro-4-methoxyphenyl)-8-(3-hydroxy-3-methylbut-1-yn-1-yl)-4-oxo-2-(pyrrolidin-2-yl)-3,4-dihydroquinazoline-6-carbonitrile]	51 to 150 nM	51 to 150 nM
COc1ccc(-n2c([C@]3(C)CCCN3)nc3c(-c4ccc(C)nc4)cc(C#N)cc3c2=O)cc1F [Example 142, (S)-3-(3-fluoro-4-methoxyphenyl)-8-(6-methylpyridin-3-yl)-2-(2-methylpyrrolidin-2-yl)-4-oxo-3,4-dihydroquinazoline-6-carbonitrile]	1 to 50 nM	1 to 50 nM
COc1ccc(-n2c([C@@H]3CCCN3)nc3ccc(F)c(F)c3c2=O)cc1 [Example 30, (S)-5,6-difluoro-3-(4-methoxyphenyl)-2-(pyrrolidin-2-yl) quinazolin-4 (3H)-one]	> 1000 nM	> 1000 nM
COCCOc1ccc(-c2cc(C#N)cc3c(=O)n(-c4ccc(OC)c(F)c4)c(C4CCCN4)nc23)cc1 (centres unmarked) [Example 154, 3-(3-Fluoro-4-methoxyphenyl)-8-(4-(2-methoxyethoxy)phenyl)-4-oxo-2-(pyrrolidin-2-yl)-3,4-dihydroquinazoline-6-carbonitrile]	1 to 50 nM	1 to 50 nM
COc1ccc(-n2c(C3CCCN3)nc3c(-c4ccc(N5CCN(C)CC5)nc4)cc(C#N)cc3c2=O)cc1F (centres unmarked) [Example 132, 3-(3-fluoro-4-methoxyphenyl)-8-(6-(4-methylpiperazin-1-yl)pyridin-3-yl)-4-oxo-2-(pyrrolidin-2-yl)-3,4-dihydroquinazoline-6-carbonitrile]	1 to 50 nM	1 to 50 nM
Cc1cc(-c2cc(C#N)cc3c(=O)n(-c4cc(F)c(NCC5(CO)COC5)c(F)c4)c(C4CCCN4)nc23)cc(C)n1 (centres unmarked) [Example 164, 3-(3,5-difluoro-4-(((3-(hydroxymethyl)oxetan-3-yl)methyl)amino)phenyl)-8-(2,6-dimethylpyridin-4-yl)-4-oxo-2-(pyrrolidin-2-yl)-3,4-dihydroquinazoline-6-carbonitrile]	501 to 1000 nM	501 to 1000 nM
O=c1c2cc([N+](=O)[O-])ccc2nc(C2CCCN2)n1-c1cccc(Cl)c1 (centres unmarked) [Example 39, 3-(3-chlorophenyl)-6-nitro-2-(pyrrolidin-2-yl) quinazolin-4 (3H)-one]	51 to 150 nM	> 1000 nM
COc1ccc(-n2c([C@H]3CCCN3)nc3c(-c4cncc(F)c4)cc([N+](=O)[O-])cc3c2=O)cc1F [Example 93, (R)-3-(3-fluoro-4-methoxyphenyl)-8-(5-fluoropyridin-3-yl)-6-nitro-2-(pyrrolidin-2-yl) quinazolin-4 (3H)-one]	1 to 50 nM	1 to 50 nM
COc1ccc(-n2c([C@H]3CCCN3)nc3ccc(C#N)cc3c2=O)cc1 [Example 14, (R)-3-(4-methoxyphenyl)-4-oxo-2-(pyrrolidin-2-yl)-3,4-dihydroquinazoline-6-carbonitrile]	1 to 50 nM	51 to 150 nM
COc1ccc(-n2c([C@H]3CCC(=O)N3)nc3c(-c4ccc(C)nc4)cc(C#N)cc3c2=O)cc1F [Example 121, (R)-3-(3-fluoro-4-methoxyphenyl)-8-(6-methylpyridin-3-yl)-4-oxo-2-(5-oxopyrrolidin-2-yl)-3,4-dihydroquinazoline-6-carbonitrile]	> 1000 nM	> 1000 nM
O=c1c2cc([N+](=O)[O-])ccc2nc([C@H]2CCCN2)n1-c1ccc(Cl)cc1 [Example 23, (R)-3-(4-chlorophenyl)-6-nitro-2-(pyrrolidin-2-yl) quinazolin-4 (3H)-one]	1 to 50 nM	1 to 50 nM
COc1ccc(-n2c([C@H]3CCCN3)nc3c(C4CC4)cc([N+](=O)[O-])cc3c2=O)cc1 [Example 95, (R)-8-cyclopropyl-3-(4-methoxyphenyl)-6-nitro-2-(pyrrolidin-2-yl) quinazolin-4 (3H)-one]	1 to 50 nM	51 to 150 nM

Compound	EC50 (VEEV TC83)	EC50 (WEEV California)
COc1ccc(-n2c([C@@H]3CCNC3)nc3c(C)cc([N+](=O)[O-])cc3c2=O)cc1F [Example 67, (R)-3-(3-fluoro-4-methoxyphenyl)-8-methyl-6-nitro-2-(pyrrolidin-3-yl) quinazolin-4 (3H)-one]	151 to 500 nM	151 to 500 nM
COc1ccc(-n2c([C@@H]3CCCN3)nc3c(C)cc([N+](=O)[O-])cc3c2=O)cc1 [Example 56, (S)-3-(4-methoxyphenyl)-8-methyl-6-nitro-2-(pyrrolidin-2-yl) quinazolin-4 (3H)-one]	1 to 50 nM	51 to 150 nM
COc1ccc(-n2c(C3CCCN3)nc3c(-c4ccc(N5CCOCC5)nc4)cc(C#N)cc3c2=O)cc1F (centres unmarked) [Example 124, 3-(3-fluoro-4-methoxyphenyl)-8-(6-morpholinopyridin-3-yl)-4-oxo-2-(pyrrolidin-2-yl)-3,4-dihydroquinazoline-6-carbonitrile]	1 to 50 nM	1 to 50 nM
O=c1c2cc([N+](=O)[O-])ccc2nc([C@H]2CCCN2)n1-c1ccccc1 [Example 2, (R)-6-nitro-3-phenyl-2-(pyrrolidin-2-yl) quinazolin-4 (3H)-one]	1 to 50 nM	51 to 150 nM
COc1ccc(-n2c([C@@H]3CCCN3)nc3c(-c4cccnc4)cc(C#N)cc3c2=O)cc1F [Example 108, (S)-3-(3-fluoro-4-methoxyphenyl)-4-oxo-8-(pyridin-3-yl)-2-(pyrrolidin-2-yl)-3,4-dihydroquinazoline-6-carbonitrile]	1 to 50 nM	1 to 50 nM
COc1ccc(-n2c(C3CCCN3)nc3c(-c4ccc(O)nc4)cc(C#N)cc3c2=O)cc1F (centres unmarked) [Example 131, 3-(3-fluoro-4-methoxyphenyl)-8-(6-hydroxypyridin-3-yl)-4-oxo-2-(pyrrolidin-2-yl)-3,4-dihydroquinazoline-6-carbonitrile]	1 to 50 nM	1 to 50 nM
O=c1c2cc([N+](=O)[O-])ccc2nc([C@@H]2CCCN2)n1-c1ccccc1 [Example 5, (S)-6-nitro-3-phenyl-2-(pyrrolidin-2-yl) quinazolin-4 (3H)-one]	151 to 500 nM	151 to 500 nM
COc1ccc(-n2c(C3CC4CCC3N4)nc3c(-c4ccc(C)nc4)cc(C#N)cc3c2=O)cc1F (centres unmarked) [Example 143, 2-(7-azabicyclo[2.2.1]heptan-2-yl)-3-(3-fluoro-4-methoxyphenyl)-8-(6-methylpyridin-3-yl)-4-oxo-3,4-dihydroquinazoline-6-carbonitrile]	51 to 150 nM	151 to 500 nM
COc1c(F)cc(-n2c(C3CCCN3)nc3c(-c4ccc(C#CC(C)(C)O)cc4)cc(C#N)cc3c2=O)cc1F (centres unmarked) [Example 170, 3-(3,5-difluoro-4-methoxyphenyl)-8-(4-(3-hydroxy-3-methylbut-1-yn-1-yl)phenyl)-4-oxo-2-(pyrrolidin-2-yl)-3,4-dihydroquinazoline-6-carbonitrile]	51 to 150 nM	51 to 150 nM
O=c1c2cc([N+](=O)[O-])ccc2nc([C@@H]2CCCN2)n1-c1ccc(OC(F)(F)F)cc1 [Example 46, (S)-6-nitro-2-(pyrrolidin-2-yl)-3-(4-(trifluoromethoxy)phenyl)quinazolin-4 (3H)-one]	> 1000 nM	> 1000 nM
COc1ccc(-n2c([C@H]3CCCN3)nc3c(-c4cncnc4)cc([N+](=O)[O-])cc3c2=O)cc1 [Example 87, (R)-3-(4-methoxyphenyl)-6-nitro-8-(pyrimidin-5-yl)-2-(pyrrolidin-2-yl) quinazolin-4 (3H)-one]	1 to 50 nM	1 to 50 nM
COc1ccc(-n2c(C3CCCN3)nc3c(-c4cnc(OC)c(OC)c4)cc(C#N)cc3c2=O)cc1F (centres unmarked) [Example 135, 8-(5,6-dimethoxypyridin-3-yl)-3-(3-fluoro-4-methoxyphenyl)-4-oxo-2-(pyrrolidin-2-yl)-3,4-dihydroquinazoline-6-carbonitrile]	1 to 50 nM	1 to 50 nM
N#Cc1ccccc1-n1c([C@H]2CCCN2)nc2ccc([N+](=O)[O-])cc2c1=O [Example 22, (R)-2-(6-nitro-4-oxo-2-(pyrrolidin-2-yl)quinazolin-3 (4H)-yl)benzonitrile]	> 1000 nM	> 1000 nM
COc1cc(F)ccc1-n1c([C@H]2CCCN2)nc2ccc([N+](=O)[O-])cc2c1=O [Example 26, (R)-3-(2-methoxy-4-fluorophenyl)-6-nitro-2-(pyrrolidin-2-yl) quinazolin-4 (3H)-one]	> 1000 nM	> 1000 nM
COc1ccc(-n2c(C3CCCN3)nc3c(-c4ccc(N5CCCC5)nc4)cc(C#N)cc3c2=O)cc1F (centres unmarked) [Example 127, 3-(3-fluoro-4-methoxyphenyl)-4-oxo-8-(6-(pyrrolidin-1-yl)pyridin-3-yl)-2-(pyrrolidin-2-yl)-3,4-dihydroquinazoline-6-carbonitrile]	1 to 50 nM	51 to 150 nM
